Test results published in PubChem BioAssay (NCI).
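GI50: concentration for 50% inhibition of growth. TGI is the concentration that stops growth completely.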

Experiments:
Experiment in all cases: NCI-60 cell line screen, 384-well format
HCT-15 colon = system: HCT-15 colon
SK-OV-3 ovarian = system: SK-OV-3 ovarian
DU-145 prostate = system: DU-145 prostate
KM12 colon = system: KM12 colon
NCI-H460 NSCLC = system: NCI-H460 NSCLC
HL-60(TB) leukemia = system: HL-60(TB) leukemia
HOP-62 NSCLC = system: HOP-62 NSCLC
NCI-H322M lung = system: NCI-H322M lung
PC-3 prostate = system: PC-3 prostate
786-0 renal = system: 786-0 renal
MDA-MB-435 melanoma = system: MDA-MB-435 melanoma
OVCAR-4 ovarian = system: OVCAR-4 ovarian
CAKI-1 renal = system: CAKI-1 renal
MOLT-4 leukemia = system: MOLT-4 leukemia
U251 glioblastoma = system: U251 glioblastoma
K-562 leukemia = system: K-562 leukemia
SNB-19 CNS = system: SNB-19 CNS
SK-MEL-28 melanoma = system: SK-MEL-28 melanoma
LOX IMVI melanoma = system: LOX IMVI melanoma
HT29 colon = system: HT29 colon
TK-10 renal = system: TK-10 renal
NCI-H522 lung = system: NCI-H522 lung
SK-MEL-2 melanoma = system: SK-MEL-2 melanoma
EKVX NSCLC = system: EKVX NSCLC
COLO 205 colon = system: COLO 205 colon
SNB-75 CNS = system: SNB-75 CNS
HCT-116 colon = system: HCT-116 colon
RXF 393 renal = system: RXF 393 renal

CN(C)CC(C)(CN(C)C)C(=O)/C=C/c1c(Cl)cccc1Cl
GI50 (HCT-15 colon): 1.86 µM | TGI (HCT-15 colon): 3.33 µM | GI50 (SK-OV-3 ovarian): 4.38 µM | TGI (SK-OV-3 ovarian): 15.4 µM | GI50 (DU-145 prostate): 5.18 µM | TGI (DU-145 prostate): 16 µM | GI50 (KM12 colon): 1.22 µM | TGI (KM12 colon): 2.92 µM | GI50 (NCI-H460 NSCLC): 1.97 µM | TGI (NCI-H460 NSCLC): 3.59 µM | GI50 (HL-60(TB) leukemia): 1.01 µM | TGI (HL-60(TB) leukemia): 2.18 µM | GI50 (HOP-62 NSCLC): 2.32 µM | TGI (HOP-62 NSCLC): 3.96 µM | GI50 (NCI-H322M lung): 3.86 µM | TGI (NCI-H322M lung): 12.3 µM | GI50 (PC-3 prostate): 2.52 µM | TGI (PC-3 prostate): 5.2 µM | GI50 ([…]-0 renal): 1.79 µM | TGI (786-0 renal): 3.22 µM | GI50 (MDA-MB-435 melanoma): 3.9 µM | TGI (MDA-MB-435 melanoma): 11.6 µM | GI50 (OVCAR-4 ovarian): 1.81 µM | TGI (OVCAR-4 ovarian): 3.21 µM | GI50 (CAKI-1 renal): 1.81 µM | TGI (CAKI-1 renal): 3.23 µM | GI50 (MOLT-4 leukemia): 1.54 µM | TGI (MOLT-4 leukemia): 2.89 µM | GI50 (U251 glioblastoma): 2.12 µM | TGI (U251 glioblastoma): 3.74 µM | GI50 (K-562 leukemia): 4.98 µM | TGI (K-562 leukemia): 15.9 µM | GI50 (SNB-19 CNS): 4.18 µM | TGI (SNB-19 CNS): 12.4 µM | GI50 (SK-MEL-28 melanoma): 10 µM | TGI (SK-MEL-28 melanoma): 21.7 µM | GI50 (LOX IMVI melanoma): 1.67 µM | TGI (LOX IMVI melanoma): 3.15 µM | GI50 (HT29 colon): 1.87 µM | TGI (HT29 colon): 3.41 µM | GI50 (TK-10 renal): 1.61 µM | TGI (TK-10 renal): 3.12 µM | GI50 (NCI-H522 lung): 1.71 µM | TGI (NCI-H522 lung): 3.09 µM | GI50 (SK-MEL-2 melanoma): 2.07 µM | TGI (SK-MEL-2 melanoma): 3.54 µM | GI50 (EKVX NSCLC): 4.28 µM | TGI (EKVX NSCLC): 14.1 µM | GI50 (COLO 205 colon): 2.17 µM | TGI (COLO 205 colon): 3.66 µM | GI50 (SNB-75 CNS): 5.16 µM | TGI (SNB-75 CNS): 11.3 µM | GI50 (HCT-116 colon): 2.03 µM | TGI (HCT-116 colon): 3.53 µM | GI50 (RXF 393 renal): 2.13 µM
